Source: patent US11697648B2, “Fused pyrimidine pyridinone compounds as JAK inhibitors” (THERAVANCE BIOPHARMA R&D IP, LLC, priority 2019, dated 2023)

Key:
[1] = tested on: Caco-2 cell monolayers; assay: Caco-2 permeation assay; format: in vitro ADME; conditions: 5 μM, A-B direction, with Verapamil (25 μM)
Method in brief: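 Passive A-to-B permeability with P-gp inhibited by verapamil (25 μM); compound at 5 μM, n=2. Both compartments sampled at t0 and t120 and quantified by LC-MS/MS, giving apparent permeability in cm/sec from flux, area and concentration.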

[2] = tested on: oxazolone-induced colitis; assay: Mouse model of oxazolone-induced colitis; format: in vivo, BALB/C mice
Method: Assay 6: Mouse Model of Oxazolone-Induced Colitis
Oxazolone-induced colitis is an experimental model that has a histological resemblance to human ulcerative colitis (Heller et al. Immunology, 2002, 17, 629-638). Adult BALB/C mice from Harlan were used in the assay. On day 1, animals were lightly anesthetized with isoflurane and the hairs between the shoulder were carefully removed before oxazolone (4%, 150 μL, 4:1 acetone: olive oil formulation) or vehicle solution was slowly applied for skin sensitization. Seven days after skin sensitization, the mice were fasted around 6 hours prior, anesthetized with ketamine/xylazine injection, and a 1 mL syringe equipped with a 3.5-F catheter, filled with oxazolone solution, was inserted carefully about 4 cm into the colon of the mouse. Following insertion, 50 μL of the oxazolone solution (0.8% in 1:1 ethanol:water formulation) was injected very slowly (over 30 sec using an injection pump) into the colon. Drug treatment (PO, QD or BID or TID) or vehicle was initiated a day prior to the oxazolone intrarectal (IR) challenge. Two-day post oxazolone intrarectal challenge, the disease was assessed by treatment-blinded experimenters for each mouse according to the criteria score: stool consistency score (0, normal; 2, loose; 4, diarrhea), gross bleeding score (0, absence; 2, blood tinged; 4, presence); Combined stool score endpoint=stool consistency score+stool blood score.
Select compounds were tested in the assay.

Structure (SMILES): C=CC(=O)N1CC(CCn2c(=O)ccc3cnc(Nc4cccc(CN5CCN(C(=O)N(C)C)CC5)c4)nc32)C1 [Example 5, 4-(3-((8-(2-(1-acryloylazetidin-3-yl)ethyl)-7-oxo-7,8-dihydropyrido[2,3-d]pyrimidin-2-yl)amino)benzyl)-N,N-dimethylpiperazine-1-carboxamide]
- Caco Kp [1]: A (A represents a value below 5×10^−6 cm/sec)
- combined stool score endpoint as compared with vehicle treated animals ([2]; dose of 1 mg/kg (PO, BID)): statistically significant decrease
- combined stool score endpoint as compared with vehicle treated animals ([2]; dose of 3 mg/kg (PO, BID)): statistically significant decrease

Structure (SMILES): C=CC(=O)N1CCN(CCn2c(=O)ccc3cnc(Nc4cnn(C)c4)nc32)[C@@H](CC)C1 [Example 12, (S)-8-(2-(4-acryloyl-2-ethylpiperazin-1-yl)ethyl)-2-((1-methyl-1H-pyrazol-4-yl)amino)pyrido[2,3-d]pyrimidin-7(8H)-one]
- Caco Kp [1]: B (B represents a value between 5×10^−6 and 10×10^−6 cm/sec)
- combined stool score endpoint as compared with vehicle treated animals ([2]; dose of 1 mg/kg (PO, BID)): statistically significant decrease

Structure (SMILES): C=CC(=O)N1CCN(CCn2c(=O)ccc3cnc(Nc4ccc(N5CCN(C(=O)CCSC)CC5)cc4)nc32)CC1 [Example 4, 8-(2-(4-acryloylpiperazin-1-yl)ethyl)-2-((4-(4-(3-(methylthio)propanoyl)piperazin-1-yl)phenyl)amino)pyrido[2,3-d]pyrimidin-7(8H)-one]
- Caco Kp [1]: A (A represents a value below 5×10^−6 cm/sec)
- combined stool score endpoint as compared with vehicle treated animals ([2]; dose of 1 mg/kg (PO, BID)): statistically significant decrease

Structure (SMILES): C=CC(=O)N1CCN(CCn2c(=O)ccc3cnc(Nc4ccc(N5CCN(C)CC5)cc4)nc32)CC1 [Example 1, 8-(2-(4-acryloylpiperazin-1-yl)ethyl)-2-((4-(4-methylpiperazin-1-yl)phenyl)amino)pyrido[2,3-d]pyrimidin-7(8H)-one]
- Caco Kp [1]: B (B represents a value between 5×10^−6 and 10×10^−6 cm/sec)
- combined stool score endpoint as compared with vehicle treated animals ([2]; dose of 1 mg/kg (PO, BID)): statistically significant decrease
- combined stool score endpoint as compared with vehicle treated animals ([2]; dose of 3 mg/kg (PO, BID)): statistically significant decrease

Structure (SMILES): C=CC(=O)N1CC(CCn2c(=O)ccc3cnc(Nc4ccc(N5CCN(C(=O)CSC)CC5)cc4)nc32)C1 [Example 13, 8-(2-(1-acryloylazetidin-3-yl)ethyl)-2-((4-(4-(2-(methylthio)acetyl)piperazin-1-yl)phenyl)amino)pyrido[2,3-d]pyrimidin-7(8H)-one]
- Caco Kp [1]: A (A represents a value below 5×10^−6 cm/sec)
- combined stool score endpoint as compared with vehicle treated animals ([2]; dose of 1 mg/kg (PO, BID)): statistically significant decrease
- combined stool score endpoint as compared with vehicle treated animals ([2]; dose of 3 mg/kg (PO, BID)): statistically significant decrease

Structure (SMILES): C=CC(=O)N1CC(CCn2c(=O)ccc3cnc(Nc4ccc(N5CCN(C(C)=O)CC5)cc4)nc32)C1 [Example 2, 2-((4-(4-acetylpiperazin-1-yl)phenyl)amino)-8-(2-(1-acryloylazetidin-3-yl)ethyl)pyrido[2,3-d]pyrimidin-7(8H)-one]
- Caco Kp [1]: A (A represents a value below 5×10^−6 cm/sec)
- combined stool score endpoint as compared with vehicle treated animals ([2]; dose of 1 mg/kg (PO, BID)): statistically significant decrease

Structure (SMILES): C=CC(=O)N1CC(CCn2c(=O)ccc3cnc(Nc4cccc(N5CCN(C(=O)CCSC)CC5)c4)nc32)C1 [Example 7, 8-(2-(1-acryloylazetidin-3-yl)ethyl)-2-((3-(4-(3-(methylthio)propanoyl)piperazin-1-yl)phenyl)amino)pyrido[2,3-d]pyrimidin-7(8H)-one]
- Caco Kp [1]: B (B represents a value between 5×10^−6 and 10×10^−6 cm/sec)
- combined stool score endpoint as compared with vehicle treated animals ([2]; dose of 1 mg/kg (PO, BID)): statistically significant decrease
